Test results taken from PubChem BioAssay AID179 (DTP/NCI, 2004).
The source made the active and inactive calls.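 Rule for the calls: active = compounds giving half or more protection of infected cells from virus-caused growth loss, again on retest; inactive = the rest.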

Tested on: CEM cells HIV-1 protection, formazan growth assay
Assay: NCI AIDS Antiviral Assay
Conditions: for IC50: measured here: growth of uninfected CEM cells
Procedure, shortened: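 Soluble formazan readout of cell growth; CEM cells ± HIV-1; 5 drug concs. ≥50% protection → retest; ≥50% again = moderately active; reproducible 100% = confirmed active.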

SMILES | EC50 [µM] | IC50 [µM] | outcome
O=C(N/C=C(/c1ccccc1)S(=O)Cc1ccccc1)Nc1ccccc1Cl (stereo not drawn) | > 501 | 17.4 | –
O=[N+]([O-])c1cccc(C2SCc3nc4ccccc4n32)c1 (stereo not drawn) | > 60.3 | 37.2 | –
CN(C)Cc1cc(CN(C)C)c(O)c(CN(C)C)c1 | > 200 | > 200 | –
Cc1ccc2nc(-c3ccccc3[N+](=O)[O-])[nH]c2c1 | > 269 | 57.5 | –
CCOc1ccc(N=c2ssc(SC)c2-c2ccccc2)cc1 | > 200 | 61.7 | –
Cc1ccc2c(c1)[nH]c(=S)n2C=C1C(=O)CC(C)(C)CC1=O | > 200 | > 200 | –
O=C(/C=C(\O)C(=O)O)/C=C(\O)c1ccc(Cl)cc1 | > 69.2 | > 69.2 | –
CCCS(=O)(=O)O | > 200 | > 200 | –
CC[C@H](O)[C@H](C)C=C1SCCCS1 | > 200 | > 200 | –
O=C1CCC(N2C(=O)C3CCCCC3C2=O)C(=O)N1 (stereo not drawn) | > 200 | > 200 | –
CN(C(=O)C12C3C4C1(C(=O)O)C1C2C3(C(=O)O)C41C(=O)N(C)C(C)(C)C)C(C)(C)C (stereo not drawn) | > 17.4 | > 17.4 | –
COc1ccc2nc(NC(=O)C(=O)NNC(=O)c3ccncc3)sc2c1 | > 174 | 16.2 | –
Cc1cc(Cl)ccc1NC(=O)C(=O)C(C(=O)c1ccccc1)C1OC(=O)c2ccccc21 (stereo not drawn) | > 562 | 302 | –
O=C(CCc1cccc(O)c1)NCCc1ccc(O)cc1 | 123 | > 200 | –
NC(N)=NS(=O)(=O)c1ccc(NC(=O)c2ccc3nc4ccccc4c(N)c3c2)cc1 | 102 | > 200 | –
COCCOCC(=O)N(CCn1ccc(NC(c2ccccc2)(c2ccccc2)c2ccccc2)nc1=O)CCn1cnc2nc(N)[nH]c(=O)c21 | 28.8 | 60.3 | –
O=C(/C=C/c1ccc(Br)cc1)c1ccc(NCc2nc3ccccc3[nH]2)cc1 | > 16.6 | 11.5 | –
COc1cc(Br)c(C=Nc2cccc3ccc(OS(=O)(=O)c4cccc([N+](=O)[O-])c4)cc23)cc1OC | – | – | inactive
Nc1cccc(N=Nc2c(S(=O)(=O)O)cc3cc(Nc4ccc5c(O)c(N=Nc6cccc(N)c6)c(S(=O)(=O)O)cc5c4)ccc3c2O)c1 | – | – | inactive
CC(=O)c1sc(Nc2ccc(Cl)c(Cl)c2)nc1C | – | – | inactive
COc1ccc(C2(O)c3ccccc3C(=O)N(C)C2(O)c2ccc(OC)cc2)cc1 (stereo not drawn) | > 200 | 37.2 | –
O=C1OC(Cc2ccccc2)=C(Cl)C(Cl)(Cc2ccccc2)C1Cl (stereo not drawn) | > 200 | 5.25 | –

SMILES | EC50 [µM] | IC50 [µM] | outcome
CCOP(=O)(OCC)/C(=C/n1c(=S)[nH]c2ccccc21)C(=O)OC | > 200 | > 200 | –
CCN(CC)c1c(C(C)(C)C)c(=O)n2ccsc2c1OC(C)=O | > 200 | 32.4 | –
O=[N+]([O-])c1ccc(N2N=NC3C4CCC(C4)C32)cc1 (stereo not drawn) | > 95.5 | 43.7 | –
CCN(CC)CCOC(=O)c1cc2ccccc2[nH]1 | > 200 | > 200 | –
Cc1ccc(C(=O)O)c(/C=C2\Cc3cc(C)cc(C)c3C2=O)c1 | – | – | inactive
O=C1Cn2c(c3ccccc3nc2=O)N1 | > 10 | > 10 | –
Cc1cc(C2(c3cc(C)c(O)cc3C)OS(=O)(=O)c3ccccc32)c(C)cc1O | – | – | inactive
CCCc1cc(=O)oc2c3c(cc(OC(C)C)c12)O[C@@H](C)[C@H](C)[C@H]3O | > 200 | 11.7 | –
C=C1C(=O)O[C@H]2[C@H]1CC(=O)/C(C)=C/CC[C@@]1(C)O[C@@H]21 | > 2 | 0.794 | –
COc1ccc(-c2onc(-c3c(C)cc(C)cc3C)c2C2=NCCN2)cc1 | > 72.4 | > 72.4 | –
COc1ccc(C2(O)C(S(=O)(=O)c3ccc(C)cc3)=Cc3ccc(OC)cc32)cc1 (stereo not drawn) | > 200 | > 200 | –
C=CC1(C)CCC2=C(CCC3C(C)(C(=O)OC)CCCC23C)C1=O (stereo not drawn) | > 200 | 28.8 | –
Cc1nnc(-n2c(O)cc(=O)n(-c3ccccc3)c2=S)nc1/C=C/c1ccc(N(C)C)cc1 | > 100 | 5.62 | –
Cc1cc2nc3c(=O)n(C)c(=O)nc-3n(-c3ccc(Cl)cc3)c2cc1C | – | – | inactive
Clc1cccc(Cl)c1C=NC12CC3CC(CC(C3)C1)C2 | > 200 | > 200 | –
CCOC(=O)c1nc2ccccc2nc1Oc1ccc(F)cc1 | > 200 | > 200 | –
Cc1cccc(Nc2nc(NNC(=O)Cc3ccccc3)nc(NNC(=O)c3ccncc3)n2)c1 | > 100 | > 100 | –
COc1cc(COC(=O)N2CCC2C(=O)O)c([N+](=O)[O-])cc1OC (stereo not drawn) | > 741 | > 741 | –
CCOc1ccccc1N=Nc1c(-c2ccccc2)nn(C(=O)CC(=O)Nc2cccc(Cl)c2)c1-c1ccccc1 | > 45.7 | > 45.7 | –
O=C1c2cccc3cccc(c23)C(=O)N1O | > 100 | 7.41 | –
COc1ccc(N=N/C(=N\NC(=O)c2cc(Br)ccc2O)c2ccc(N(CCC#N)CCC#N)cc2OC)cc1 | > 100 | 18.2 | –
CCCCCCCCCCCCCCCCOC(=O)c1cc(OCCOP(=O)(O)O)cc(C(=O)OCCCCCCCCCCCCCCCC)c1 | – | – | inactive

SMILES | EC50 [µM] | IC50 [µM] | outcome
CCN(CC)CCC(=O)c1ccc(Oc2ccc(C)cc2)cc1 | > 200 | 28.8 | –
CC[N+]1(C2=C([O-])C(F)(F)C2=O)CCCCC1 | > 200 | > 200 | –
CC(=O)Oc1ccc2c(c1)c1c(=O)oc(C)nc1n2Cc1ccccc1 | > 200 | 66.1 | –
C1CCOC2(CCC3(CC2)OCCCCO3)OC1 | – | – | inactive
CCCC1c2c(cc(=O)[nH]c2O)C(=O)N1Cc1ccccc1 (stereo not drawn) | > 63.1 | > 63.1 | –
Cc1ccc(S(=O)(=O)c2c(N)c3nccn3c3nc4ccccc4nc23)cc1 | > 25.7 | > 25.7 | –
C=C1C(=O)O[C@H]2C1C[C@@H](OC(C)=O)/C(C)=C/CC[C@@]1(C)O[C@H]21 (stereo partly drawn) | > 200 | 1.2 | –
CNc1ncc(-c2nnnn2-c2ccccc2)c(CN(C)C)n1 | > 200 | > 200 | –
O=c1c(-c2ccc(O)cc2)coc2c(C3OC(CO)C(O)C(O)C3O)c(O)ccc12 (stereo not drawn) | > 200 | > 200 | –
CC(C)(C)C1=NC(=P(c2ccccc2)(c2ccccc2)c2ccccc2)C(=O)O1 | > 100 | > 100 | –
O=C(CCCN1CCC2(CC1)C(=O)NCN2c1ccc(F)cc1)c1ccc(F)cc1 | > 200 | > 200 | –
CCc1cccc(C)c1NC(=O)CCc1nnc(SC)o1 | > 162 | > 162 | –
CCCn1c(SCC)c2ccccc2c1-c1nc(F)nc(F)n1 | > 8.13 | > 8.13 | –
Cc1cc2c(cc1C)N1Cc3c(ccc(C)c3C)N(C2)C1 (tested in a mixture with another compound) | – | – | inactive
CCOC(=O)c1ccc(-c2onc(C)c2Br)[nH]1 | > 200 | 39.8 | –
COc1ccc2c(c1)C1c3ccccc3CCN1CCC2 (stereo not drawn) | > 200 | 79.4 | –
COc1ccc(/C=C/C(=O)c2c(-c3ccccc3)nn(C)c(=O)c2N2CC2C)cc1 (stereo not drawn) | > 64.6 | 22.4 | –
CCS(CC)(CC)CC1CCCC2=CCC(P(=O)(c3ccccc3)c3ccccc3)CC21 (stereo not drawn) | > 15.5 | > 15.5 | –
COc1cc2cc(C(=O)N3CC(CCl)c4ccc(NO)cc43)[nH]c2c(OC)c1OC (stereo not drawn) | > 2 | 1.82 | –
C/C(=N\NC(=S)Nc1ccccc1)[C@H]1C2CCC(C2)C1C/C=C\CCCC(=O)O (stereo partly drawn) | > 229 | 107 | –
O=C(CC(C(=O)c1cccs1)c1ccsc1)c1ccc(Cl)cc1 (stereo not drawn) | > 200 | 52.5 | –
CC(=O)/C(=N\Nc1ccc(Cl)cc1)C(C)=Nc1ccc(C)cc1 | > 200 | 30.2 | –

SMILES | EC50 [µM] | IC50 [µM] | outcome
Cc1c(C)c(CC(=O)N2CC2)c(C)c(C)c1CC(=O)N1CC1 | > 200 | 0.794 | –
COc1ccc(C2CC(=O)Oc3ccccc3O2)cc1 (stereo not drawn) | 102 | 151 | –
O=C1C(=Cc2ccc(F)cc2)C(=O)c2ccccc21 | > 10.7 | > 10.7 | –
COc1ccc(C2=Nc3ccccc3SC(c3ccc(OC)cc3)C2)cc1 (stereo not drawn) | > 47.9 | 25.7 | –
C=C(C(=O)O)C1CC[C@@]2(C)CCC[C@@](C)(O)C2C1 (stereo partly drawn) | > 200 | > 200 | –
O=C(O)Cc1ccc2c(c1O)C(=O)c1c(ccc(CC(=O)O)c1O)C2=O | > 191 | 126 | –
COc1ccc2[nH]c3c4c(c5cc(C(C)(C)C)ccc5c3c2c1)C(=O)N(c1ccccc1)C4=O | – | – | inactive
Cc1cc(S(=O)(=O)Nc2nc(N)n(C)n2)c(S)cc1Cl | > 200 | > 200 | –
COc1cc(CO)c(-c2c(CO)cc(OC)c(OC)c2OC)c(OC)c1OC | > 631 | > 631 | –
Cc1c(N=Nc2ccc(N(C)C)cc2)cc[n+]([O-])c1C | > 200 | > 200 | –
CC1(C)OC(=O)C(C(N)=O)=C1/C=C1\OC(=O)c2ccccc21 | > 24 | > 24 | –
CC(=O)OCC1OC(c2c(OC(C)=O)cc(C)c3c(=O)cc(/C(C(C)=O)=C(\C)O)oc23)C(OC(C)=O)C(OC(C)=O)C1OC(C)=O (stereo not drawn) | > 200 | > 200 | –
COc1ccc(NC(=O)CC/C(CC(=O)c2ccccc2Cl)=N\Nc2nnc(C)n2N)cc1 | > 537 | 191 | –
Cn1c(=O)c2c([nH]c(=O)n2C)n(C)c1=O | > 200 | > 200 | –
O=CN/C=C/c1cc(O)ccc1O | > 79.4 | 4.57 | –
CCOC(=O)c1ccc(N/N=[N+](/[O-])CC2OC(n3ccc(=O)[nH]c3=O)C(O[Si](C)(C)C(C)(C)C)C2O[Si](C)(C)C(C)(C)C)cc1 (stereo not drawn) | > 200 | 21.4 | –
CCOC(=O)C1=C(C)CC2C(=O)OC(=O)C2C1(C)C (stereo not drawn) | – | – | inactive
CN1N=C(c2ccncc2)OC1c1ccccc1F (stereo not drawn) | > 200 | 129 | –
O=c1c2c([nH]n1-c1ccccc1)-c1ccccc1CS2 | > 204 | 135 | –
c1ccc2c(c1)CCN2CCc1c[nH]c2ccccc12 | > 200 | 178 | –
COc1cc(C(=O)C/C(CCC(=O)Nc2ccc(Cl)cc2Cl)=N/Nc2nnc(C)n2N)ccc1O | > 50.1 | > 50.1 | –
